molecular target: T1, human vasopressin V1b receptor (Homo sapiens, UniProt P47901); assay: Vasopressin V1b receptor binding assay; settings: membranes from CHO-K1 cells with stably expressed human V1b receptors; displacement of 1.5 nM 3H-AVP; read-out: V1b receptor affinity (affinity constant Ki)
T1 construct: expressed in transfected cells; host or cells: CHO-K1 (cell line hV1b-3H2_CHO), membrane preparation
T1 sequence (P47901 1-424): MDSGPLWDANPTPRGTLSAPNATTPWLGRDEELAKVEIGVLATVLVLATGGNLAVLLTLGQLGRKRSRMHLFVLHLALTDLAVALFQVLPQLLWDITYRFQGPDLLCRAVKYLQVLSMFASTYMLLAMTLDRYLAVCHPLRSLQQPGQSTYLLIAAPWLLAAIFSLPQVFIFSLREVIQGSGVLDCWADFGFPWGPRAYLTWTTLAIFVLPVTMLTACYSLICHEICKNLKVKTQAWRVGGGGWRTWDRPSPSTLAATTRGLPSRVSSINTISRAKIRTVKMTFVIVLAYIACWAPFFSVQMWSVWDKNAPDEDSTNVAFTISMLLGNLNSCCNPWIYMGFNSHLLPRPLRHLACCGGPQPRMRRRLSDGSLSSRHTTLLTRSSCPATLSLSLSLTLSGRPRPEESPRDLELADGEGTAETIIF
Method in brief: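 Ki values come from nonlinear regression of triplicate scintillation counts after filtration. Test compound (2% DMSO in the mixture) and radioligand were incubated 60 min at room temperature with human V1b membranes in pH 7.4 Tris buffer with 10 mM MgCl2 and 0.1% BSA. Nonspecific binding was set with 1 uM AVP.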

Ki [nM] | SMILES
500 to 10000 | COc1ccc(S(=O)(=O)n2c(=O)n(C(C(=O)N3CCCCC3)c3ccccc3)c3cc(Cl)ccc32)cc1 (stereo not shown) [Example 101, 5-Chloro-1-(4-methoxybenzenesulfonyl)-3-(2-oxo-1-phenyl-2-piperidin-1-ylethyl)-1,3-dihydrobenzimidazol-2-one]
100 to 500 | COc1ccc(S(=O)(=O)n2c(=O)n(C(C(=O)N3CCCC3)c3ccccc3)c3cc(Cl)ccc32)cc1 (stereo not shown) [Example 102, 5-Chloro-1-(4-methoxybenzenesulfonyl)-3-(2-oxo-1-phenyl-2-pyrrolidin-1-ylethyl)-1,3-dihydrobenzimidazol-2-one]
500 to 10000 | COc1ccc(S(=O)(=O)n2c(=O)n(C(C(=O)Nc3ccccc3)c3ccccc3)c3cc(Cl)ccc32)cc1 (stereo not shown) [Example 103, 2-[6-Chloro-3-(4-methoxybenzenesulfonyl)-2-oxo-2,3-dihydrobenzimidazol-1-yl]-2,N-diphenylacetamide]
500 to 10000 | CCN(CC)C(=O)C(c1ccccc1)n1c(=O)n(S(=O)(=O)c2ccc(OC)cc2)c2ccc(Cl)cc21 (stereo not shown) [Example 104, 2-[6-Chloro-3-(4-methoxybenzenesulfonyl)-2-oxo-2,3-dihydrobenzimidazol-1-yl]-N,N-diethyl-2-phenylacetamide]
500 to 10000 | COc1ccc(S(=O)(=O)n2c(=O)n(C(C(=O)N3CCN(c4ccccc4)CC3)c3ccccc3)c3cc(Cl)ccc32)cc1 (stereo not shown) [Example 105, 5-Chloro-1-(4-methoxybenzenesulfonyl)-3-[2-oxo-1-phenyl-2-(4-phenylpiperazin-1-yl)ethyl]-1,3-dihydrobenzimidazol-2-one]
< 100 | COc1ccc(S(=O)(=O)n2c(=O)n(C(C(=O)N(C)CCN(C)C)c3ccccc3)c3cc(Cl)ccc32)cc1 (stereo not shown) [Example 106, 2-[6-Chloro-3-(4-methoxybenzenesulfonyl)-2-oxo-2,3-dihydrobenzimidazol-1-yl]-N-(2-dimethylaminoethyl)-N-methyl-2-phenylacetamide]
< 100 | CCCN1CCN(C2CCN(C(=O)C(c3ccccc3)n3c(=O)n(S(=O)(=O)c4ccc(OC)cc4)c4ccccc43)C2)CC1 (stereo not shown) [Example 107, 1-(4-Methoxybenzenesulfonyl)-3-{2-oxo-1-phenyl-2-[3-(4-propylpiperazin-1-yl)-pyrrolidin-1-yl]ethyl}-1,3-dihydrobenzimidazol-2-one]
500 to 10000 | CCCN1CCN(C2CCN(C(=O)Cn3c(=O)n(S(=O)(=O)c4ccc(OC)cc4)c4ccc(Cl)cc43)C2)CC1 (stereo not shown) [Example 108, 5-Chloro-1-(4-methoxybenzenesulfonyl)-3-{2-oxo-2-[3-(4-propylpiperazin-1-yl)-pyrrolidin-1-yl]-ethyl}-1,3-dihydrobenzimidazol-2-one]
100 to 500 | COc1ccc(S(=O)(=O)n2c(=O)n(C(C(=O)N3CCC[C@H]3c3ncon3)c3ccccc3)c3cc(Cl)ccc32)cc1 (stereo partly drawn) [Example 110, 5-Chloro-1-(4-methoxybenzenesulfonyl)-3-[2-((S)-2-[1,2,4]oxadiazol-3-ylpyrrolidin-1-yl)-2-oxo-1-phenylethyl]-1,3-dihydrobenzimidazol-2-one]
500 to 10000 | COc1ccc(S(=O)(=O)n2c(=O)n(C(C(=O)NCc3ccccn3)c3ccccc3)c3cc(Cl)ccc32)cc1 (stereo not shown) [Example 111, 2-[6-Chloro-3-(4-methoxybenzenesulfonyl)-2-oxo-2,3-dihydrobenzimidazol-1-yl]-2-phenyl-N-pyridin-2-ylmethylacetamide]
500 to 10000 | COc1ccc(S(=O)(=O)n2c(=O)n(C(C(=O)NCc3cccnc3)c3ccccc3)c3cc(Cl)ccc32)cc1 (stereo not shown) [Example 112, 2-[6-Chloro-3-(4-methoxybenzenesulfonyl)-2-oxo-2,3-dihydrobenzimidazol-1-yl]-2-phenyl-N-pyridin-3-ylmethylacetamide]
500 to 10000 | COc1ccc(S(=O)(=O)n2c(=O)n(C(C(=O)NCCCN3CCOCC3)c3ccccc3)c3cc(Cl)ccc32)cc1 (stereo not shown) [Example 113, 2-[6-Chloro-3-(4-methoxybenzenesulfonyl)-2-oxo-2,3-dihydrobenzimidazol-1-yl]-N-(3-morpholin-4-yl-propyl)-2-phenyl-acetamide]
500 to 10000 | COc1ccc(S(=O)(=O)n2c(=O)n(C(C(=O)NCCN3CCCCC3)c3ccccc3)c3cc(Cl)ccc32)cc1 (stereo not shown) [Example 114, 2-[6-Chloro-3-(4-methoxybenzenesulfonyl)-2-oxo-2,3-dihydrobenzimidazol-1-yl]-2-phenyl-N-(2-piperidin-1-ylethyl)acetamide]
100 to 500 | COc1ccc(S(=O)(=O)n2c(=O)n(C(C(=O)NCCN3CCN(C)CC3)c3ccccc3)c3cc(Cl)ccc32)cc1 (stereo not shown) [Example 115, 2-[6-Chloro-3-(4-methoxybenzenesulfonyl)-2-oxo-2,3-dihydrobenzimidazol-1-yl]-N-[2-(4-methylpiperazin-1-yl)ethyl]-2-phenylacetamide]
500 to 10000 | COc1ccc(S(=O)(=O)n2c(=O)n(C(C(=O)NCCc3c[nH]cn3)c3ccccc3)c3cc(Cl)ccc32)cc1 (stereo not shown) [Example 116]
100 to 500 | COc1ccc(S(=O)(=O)n2c(=O)n(C(C(=O)N(C)CCCN(C)C)c3ccccc3)c3cc(Cl)ccc32)cc1 (stereo not shown) [Example 117, 2-[6-Chloro-3-(4-methoxybenzenesulfonyl)-2-oxo-2,3-dihydrobenzimidazol-1-yl]-N-(3-dimethylaminopropyl)-N-methyl-2-phenylacetamide]
< 100 | CCN(CCN(C)C)C(=O)C(c1ccccc1)n1c(=O)n(S(=O)(=O)c2ccc(OC)cc2)c2ccc(Cl)cc21 (stereo not shown) [Example 118, 2-[6-Chloro-3-(4-methoxybenzenesulfonyl)-2-oxo-2,3-dihydrobenzimidazol-1-yl]-N-(2-dimethylaminoethyl)-N-ethyl-2-phenylacetamide]
100 to 500 | CCN(CC)CCN(C)C(=O)C(c1ccccc1)n1c(=O)n(S(=O)(=O)c2ccc(OC)cc2)c2ccc(Cl)cc21 (stereo not shown) [Example 119, 2-[6-Chloro-3-(4-methoxybenzenesulfonyl)-2-oxo-2,3-dihydrobenzimidazol-1-yl]-N-(2-diethylaminoethyl)-N-methyl-2-phenylacetamide]
500 to 10000 | COc1ccc(S(=O)(=O)n2c(=O)n(C(C(=O)N(C)CCc3ccccn3)c3ccccc3)c3cc(Cl)ccc32)cc1 (stereo not shown) [Example 120, 2-[6-Chloro-3-(4-methoxybenzenesulfonyl)-2-oxo-2,3-dihydrobenzimidazol-1-yl]-N-methyl-2-phenyl-N-(2-pyridin-2-ylethyl)acetamide]
500 to 10000 | COc1ccc(S(=O)(=O)n2c(=O)n(C(C(=O)NCCCO)c3ccccc3)c3cc(Cl)ccc32)cc1 (stereo not shown) [Example 121, 2-[6-Chloro-3-(4-methoxybenzenesulfonyl)-2-oxo-2,3-dihydrobenzimidazol-1-yl]-N-(3-hydroxypropyl)-2-phenylacetamide]
500 to 10000 | CCCOCCNC(=O)C(c1ccccc1)n1c(=O)n(S(=O)(=O)c2ccc(OC)cc2)c2ccc(Cl)cc21 (stereo not shown) [Example 122, 2-[6-Chloro-3-(4-methoxybenzenesulfonyl)-2-oxo-2,3-dihydrobenzimidazol-1-yl]-2-phenyl-N-(2-propoxyethyl)acetamide]
100 to 500 | COc1ccc(S(=O)(=O)n2c(=O)n(C(C(=O)NCCCCN(C)C)c3ccccc3)c3cc(Cl)ccc32)cc1 (stereo not shown) [Example 124, 2-[6-Chloro-3-(4-methoxybenzenesulfonyl)-2-oxo-2,3-dihydrobenzimidazol-1-yl]—N-(4-dimethylaminobutyl)-2-phenylacetamide]
